From patent publication US20090053721A1, “VOLTAGE-GATED ION CHANNEL MUTANTS FOR USE IN IDENTIFYING ION CHANNEL MODULATING COMPOUNDS” (CARDIOME PHARMA CORP., priority 2007, published 2009)
Values joined by “and” are separate entries in the source; they are usually repeats but may differ in a detail not shown here. Equal entries are not always repeated. Structures can show the parent of a compound that is named as a salt. Values belong to the compound of their own block, whether it stands above or below them.

Columns and labels:
Experiment in all cases: Whole-cell patch-clamp block of mutant Kv1.5 current in HEK293 cells
Format in all cases: cell-based
[1] = molecular target: T1, Kv1.5 I502A mutant channel (Homo sapiens, UniProt P22460, I502A); settings: for Fold change: IC50 of I502A relative to WT, decrease in potency
T1 construct: subcloned as a fragment back into full-length Kv1.5; expressed in transfected cells; host or cells: HEK293, transient transfection
Description: (§1) Stable lines of HEK293 cells expressing Kv1.5, or transient transfection of mutant Kv1.5 channels were used in all experiments. […] (Coralville, Iowa, USA), and mutants were generated using the Stratagene Quikchange kit (Stratagene, Calif., USA). […] This was added to the cells for overnight incubation after washing the media with 900 μl of MEM with 10% FBS. […] Media contained 10% bovine serum and 0.5 mg/ml geneticin for stable lines. On the day before recording, stably-expressing cells were washed with MEM, treated with trypsin/EGTA for one minute and plated on 25 mm^2 coverslips. All cell culture supplies were obtained from Invitrogen (Mississauga, ON, Canada). Control bath solution contained (in mM): 5 KCl, 135 NaCl, 2.8 sodium acetate, 1 MgCl2, 10 HEPES and 1 CaCl2, adjusted to pH 7.4 with NaOH. Patch pipettes contained (in mM): 130 KCl, 5 EGTA, 1 MgCl2, 10 HEPES, 4 Na2ATP, and 0.1 GTP, adjusted to pH 7.2 with KOH. All chemicals used to make solutions were obtained from Sigma-Aldrich (Mississauga, ON, Canada). […] (Vancouver, BC, Canada) and prepared as a stock solution (50 mM) in H2O. […] DMSO concentrations for either drug never exceeded 0.1% v/v in the final experimental solutions. Coverslips with adherent cells plated on the surface were placed in a superfusion chamber (volume 300 μl) containing the control bath solution at 22° C. Whole-cell current recording and analysis were carried out using an Axopatch 200B amplifier and pClamp10 software (Axon Instruments, CA, USA). Patch electrodes were pulled from thin-walled borosilicate glass (World Precision Instruments, FL, USA) on a horizontal micropipette puller (Sutter Instruments, CA, USA). […] Analogue capacity compensation and 80% series resistance compensation were used during whole cell measurements. Membrane potentials were not corrected for junction potentials that arise between the pipette and bath solution. […] Data were sampled at 10-20 kHz and filtered at 5 to 10 kHz. […] Data are represented as mean±SE unless otherwise specified. For significance of differences, * represents p<0.05, ** p<0.01; statistical analysis was conducted using Student's t-test (unpaired). Clampfit software (Axon Instruments, CA, USA) was used to analyze current traces. Data from each test pulse (currents in the presence of drug) were normalized to control test pulse currents obtained before drug exposure. […] IC50 is the concentration producing half-maximal inhibition; and n is the Hill coefficient.

[2] = molecular target: T2, Kv1.5 I502F mutant channel (Homo sapiens, UniProt P22460, I502F)
T2 construct: subcloned as a fragment back into full-length Kv1.5; expressed in transfected cells; host or cells: HEK293, transient transfection
Description: as §1

[3] = molecular target: T3, Kv1.5 I502L mutant channel (Homo sapiens, UniProt P22460, I502L)
T3 construct: subcloned as a fragment back into full-length Kv1.5; expressed in transfected cells; host or cells: HEK293, transient transfection
Description: as §1

[4] = molecular target: T4, Kv1.5 I508A mutant channel (Homo sapiens, UniProt P22460, I508A); settings: for Fold change: IC50 of I508A relative to WT, vernakalant potency reduced, flecainide potency increased
T4 construct: subcloned as a fragment back into full-length Kv1.5; expressed in transfected cells; host or cells: HEK293, transient transfection
Description: as §1

[5] = molecular target: T5, Kv1.5 I508F mutant channel (Homo sapiens, UniProt P22460, I508F)
T5 construct: subcloned as a fragment back into full-length Kv1.5; expressed in transfected cells; host or cells: HEK293, transient transfection
Description: as §1

[6] = molecular target: T6, Kv1.5 T479A mutant channel (Homo sapiens, UniProt P22460, T479A); settings: for Fold change: IC50 of T479A relative to WT, potency increased
T6 construct: subcloned as a fragment back into full-length Kv1.5; expressed in transfected cells; host or cells: HEK293, transient transfection
Description: as §1

[7] = molecular target: T7, Kv1.5 V505A mutant channel (Homo sapiens, UniProt P22460, V505A); settings: for Fold change: IC50 of V505A relative to WT, vernakalant potency reduced, flecainide potency increased
T7 construct: subcloned as a fragment back into full-length Kv1.5; expressed in transfected cells; host or cells: HEK293, transient transfection
Description: as §1

[8] = molecular target: T8, Kv1.5 V505F mutant channel (Homo sapiens, UniProt P22460, V505F)
T8 construct: subcloned as a fragment back into full-length Kv1.5; expressed in transfected cells; host or cells: HEK293, transient transfection
Description: as §1

T2 sequence (P22460 whole entry I502F, the tested form may be a part): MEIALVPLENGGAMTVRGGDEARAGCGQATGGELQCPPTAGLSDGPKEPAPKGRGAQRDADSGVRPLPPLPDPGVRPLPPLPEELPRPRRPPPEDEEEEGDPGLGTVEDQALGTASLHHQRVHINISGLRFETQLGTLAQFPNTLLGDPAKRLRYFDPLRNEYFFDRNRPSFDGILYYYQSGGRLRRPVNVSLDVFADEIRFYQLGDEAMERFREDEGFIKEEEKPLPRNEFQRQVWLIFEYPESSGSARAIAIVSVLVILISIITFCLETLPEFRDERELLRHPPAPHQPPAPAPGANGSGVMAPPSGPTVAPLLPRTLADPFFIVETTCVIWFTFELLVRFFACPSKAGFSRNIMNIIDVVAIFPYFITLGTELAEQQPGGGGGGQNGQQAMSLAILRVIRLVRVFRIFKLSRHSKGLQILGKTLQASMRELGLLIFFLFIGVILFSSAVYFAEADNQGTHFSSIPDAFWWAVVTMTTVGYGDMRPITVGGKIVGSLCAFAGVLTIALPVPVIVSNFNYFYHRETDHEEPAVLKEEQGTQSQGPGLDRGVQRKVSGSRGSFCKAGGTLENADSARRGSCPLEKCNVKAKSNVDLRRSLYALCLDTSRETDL
T1 sequence (P22460 whole entry I502A, the tested form may be a part): as the sequence (P22460 whole entry I502F, the tested form may be a part) above, with F502A counted along it
T7 sequence (P22460 whole entry V505A, the tested form may be a part): as the sequence (P22460 whole entry I502F, the tested form may be a part) above, with F502I, V505A counted along it
T8 sequence (P22460 whole entry V505F, the tested form may be a part): as the sequence (P22460 whole entry I502F, the tested form may be a part) above, with F502I, V505F counted along it
T5 sequence (P22460 whole entry I508F, the tested form may be a part): as the sequence (P22460 whole entry I502F, the tested form may be a part) above, with F502I, I508F counted along it
T6 sequence (P22460 whole entry T479A, the tested form may be a part): as the sequence (P22460 whole entry I502F, the tested form may be a part) above, with T479A, F502I counted along it
T4 sequence (P22460 whole entry I508A, the tested form may be a part): as the sequence (P22460 whole entry I502F, the tested form may be a part) above, with F502I, I508A counted along it
T3 sequence (P22460 whole entry I502L, the tested form may be a part): as the sequence (P22460 whole entry I502F, the tested form may be a part) above, with F502L counted along it

- Fold change [1]: 2.43
- Fold change ([1]; listed as flecamide): 2.4
- IC50 ([1]; Kv1.5 I502A): 92 µM
- Fold change ([2]; IC50 of I502F relative to WT): 4.13
- IC50 ([2]; Kv1.5 I502F): 164 ± 31.4 µM
- Fold change ([3]; IC50 of I502L relative to WT, direction differs by drug): 3.55
- IC50 ([3]; Kv1.5 I502L): 10.8 ± 1.09 µM
- Fold change [4]: 5.15
- Fold change ([4]; listed as flecamide): 5.2
- IC50 ([4]; Kv1.5 I508A): 7.39 ± 0.92 µM
- Fold change ([5]; IC50 of I508F relative to WT, direction differs by drug): 1.96
- IC50 ([5]; Kv1.5 I508F): 74.7 ± 5.37 µM
- Fold change [6]: 200
- Fold change ([6]; listed as flecamide): 238
- IC50 ([6]; Kv1.5 T479A): 0.19 ± 0.04 µM
- Fold change [7]: 2.92
- Fold change ([7]; listed as flecamide): 3
- IC50 ([7]; Kv1.5 V505A): 13.1 ± 3.58 µM
- Fold change ([8]; IC50 of V505F relative to WT, direction differs by drug): 8.93
- IC50 ([8]; Kv1.5 V505F): 4.3 µM and 4.27 µM
Compound: O=C(NCC1CCCCN1)c1cc(OCC(F)(F)F)ccc1OCC(F)(F)F (stereo not drawn) [Flecainide]

Compound: COc1ccc(CCO[C@@H]2CCCC[C@H]2N2CC[C@@H](O)C2)cc1OC [Vernakalant, 3-Pyrrolidinol, 1-[(1R,2R)-2-[2-(3,4-dimethoxyphenyl)ethoxy]cyclohexyl]-,hydrochloride, (3R)]
- Hill coefficient ([1]; Kv1.5 I502A): 0.65
- Fractional Block ± SEM ([1]; Kv1.5 I502A, 10 μM vernakalant): 0.07 ± 0.03
- Hill coefficient ([2]; Kv1.5 I502F): 0.84
- Fractional Block ± SEM ([2]; Kv1.5 I502F, 10 μM vernakalant): 0.10 ± 0.01
- Hill coefficient ([3]; Kv1.5 I502L): 0.96
- Fractional Block ± SEM ([3]; Kv1.5 I502L, 10 μM vernakalant): 0.33 ± 0.07
- Hill coefficient ([4]; Kv1.5 I508A): 0.87
- Fractional Block ± SEM ([4]; Kv1.5 I508A, 10 μM vernakalant): 0.21 ± 0.03
- Hill coefficient ([5]; Kv1.5 I508F): 1.23
- Fractional Block ± SEM ([5]; Kv1.5 I508F, 10 μM vernakalant): 0.94 ± 0.02
- Hill coefficient ([6]; Kv1.5 T479A): 0.6
- Fractional Block ± SEM ([6]; Kv1.5 T479A, 10 μM vernakalant): 0.77 ± 0.05
- Hill coefficient ([7]; Kv1.5 V505A): 0.95
- Fractional Block ± SEM ([7]; Kv1.5 V505A, 10 μM vernakalant): 0.21 ± 0.04
- Hill coefficient ([8]; Kv1.5 V505F): 0.96
- Fractional Block ± SEM ([8]; Kv1.5 V505F, 10 μM vernakalant): 0.27 ± 0.05
